These compounds were tested against T1, human ACC2 (Homo sapiens, UniProt O00763) (assay: ACC2 assay, spectrophotometric 384 well assay (NADH-linked, coupled lactate dehydrogenase/pyruvate kinase)). Settings: ACC2 assay, hACC2 construct lacking 128 N-terminal amino acids, 25° C., 340 nm; read-out: IC50.
T1 construct: made in house; host or cells: insect cells (baculoviral expression system)
Assay type: biochemical
Outline: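 ADP output tracked via pyruvate kinase/lactate dehydrogenase NADH oxidation, slope at 340 nm over 15 min, 25° C, with 500 μM ATP and 200 μM each acetyl-CoA and NADH. Enzyme: insect-cell-expressed human ACC2, N-terminal 128 residues deleted; pH 7.5 Tris with citrate, KHCO3. IC50 from four-parameter regression versus vehicle and no-acetyl-CoA controls.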

T1 sequence (O00763 129-2458 limits assumed): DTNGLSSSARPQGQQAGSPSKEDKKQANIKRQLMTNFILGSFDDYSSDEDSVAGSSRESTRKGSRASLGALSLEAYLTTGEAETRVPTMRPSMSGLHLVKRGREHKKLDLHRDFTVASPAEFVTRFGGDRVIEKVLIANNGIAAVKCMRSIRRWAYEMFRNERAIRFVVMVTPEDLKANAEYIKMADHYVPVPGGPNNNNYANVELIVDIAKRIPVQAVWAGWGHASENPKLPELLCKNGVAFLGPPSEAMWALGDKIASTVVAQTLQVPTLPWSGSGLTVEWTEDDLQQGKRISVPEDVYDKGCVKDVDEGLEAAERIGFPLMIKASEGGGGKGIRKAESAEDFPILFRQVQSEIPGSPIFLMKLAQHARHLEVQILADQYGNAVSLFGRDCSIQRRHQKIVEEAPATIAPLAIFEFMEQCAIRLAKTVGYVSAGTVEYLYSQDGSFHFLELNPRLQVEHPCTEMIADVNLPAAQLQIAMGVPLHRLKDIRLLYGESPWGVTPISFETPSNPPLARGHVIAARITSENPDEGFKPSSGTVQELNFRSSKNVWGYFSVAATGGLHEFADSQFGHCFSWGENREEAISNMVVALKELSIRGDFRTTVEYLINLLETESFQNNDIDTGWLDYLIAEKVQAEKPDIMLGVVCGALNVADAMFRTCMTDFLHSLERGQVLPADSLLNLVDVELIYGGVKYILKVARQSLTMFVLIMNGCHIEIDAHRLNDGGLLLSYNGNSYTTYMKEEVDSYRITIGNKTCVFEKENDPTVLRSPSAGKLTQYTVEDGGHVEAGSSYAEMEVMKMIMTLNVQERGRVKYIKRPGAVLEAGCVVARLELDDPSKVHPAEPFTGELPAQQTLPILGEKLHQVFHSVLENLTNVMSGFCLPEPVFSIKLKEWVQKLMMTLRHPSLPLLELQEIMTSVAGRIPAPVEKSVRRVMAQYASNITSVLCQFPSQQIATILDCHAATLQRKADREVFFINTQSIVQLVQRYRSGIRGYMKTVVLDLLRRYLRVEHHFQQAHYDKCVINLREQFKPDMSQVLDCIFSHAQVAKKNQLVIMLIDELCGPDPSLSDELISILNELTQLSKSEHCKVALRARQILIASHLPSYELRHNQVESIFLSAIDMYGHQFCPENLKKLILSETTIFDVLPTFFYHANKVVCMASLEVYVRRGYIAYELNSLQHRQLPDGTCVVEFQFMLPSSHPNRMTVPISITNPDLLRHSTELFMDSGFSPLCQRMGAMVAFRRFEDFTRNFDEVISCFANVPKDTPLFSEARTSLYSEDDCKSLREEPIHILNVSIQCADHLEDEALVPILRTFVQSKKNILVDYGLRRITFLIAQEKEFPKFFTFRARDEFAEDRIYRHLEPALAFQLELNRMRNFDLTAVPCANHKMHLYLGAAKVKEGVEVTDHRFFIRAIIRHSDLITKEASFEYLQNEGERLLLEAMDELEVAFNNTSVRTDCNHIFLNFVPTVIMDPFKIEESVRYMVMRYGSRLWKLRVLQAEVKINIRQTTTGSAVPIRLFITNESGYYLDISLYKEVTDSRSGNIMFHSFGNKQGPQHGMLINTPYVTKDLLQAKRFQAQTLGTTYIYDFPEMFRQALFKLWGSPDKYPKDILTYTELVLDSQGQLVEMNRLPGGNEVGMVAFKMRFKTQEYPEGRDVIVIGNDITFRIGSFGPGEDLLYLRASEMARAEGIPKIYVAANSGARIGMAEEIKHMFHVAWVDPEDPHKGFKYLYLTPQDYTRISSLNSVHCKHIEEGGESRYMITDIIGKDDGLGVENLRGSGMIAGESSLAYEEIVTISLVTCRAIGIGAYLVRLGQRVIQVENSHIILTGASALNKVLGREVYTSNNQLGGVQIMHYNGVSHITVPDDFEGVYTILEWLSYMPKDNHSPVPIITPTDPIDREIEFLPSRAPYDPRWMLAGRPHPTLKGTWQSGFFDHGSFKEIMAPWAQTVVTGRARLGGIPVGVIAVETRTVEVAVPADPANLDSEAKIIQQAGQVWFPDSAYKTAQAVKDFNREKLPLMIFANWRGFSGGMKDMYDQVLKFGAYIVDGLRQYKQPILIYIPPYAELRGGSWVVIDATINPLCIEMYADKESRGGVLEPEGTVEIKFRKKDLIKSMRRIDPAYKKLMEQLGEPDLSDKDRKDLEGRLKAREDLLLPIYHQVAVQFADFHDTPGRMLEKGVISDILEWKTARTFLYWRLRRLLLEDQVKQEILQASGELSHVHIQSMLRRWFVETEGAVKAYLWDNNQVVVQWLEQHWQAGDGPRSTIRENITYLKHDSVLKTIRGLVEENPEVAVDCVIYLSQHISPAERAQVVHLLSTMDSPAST

Compound | IC50
CC(=O)N[C@@H](C)c1ccc(C2CCN(c3ncc(-c4cc(C)ccn4)cn3)CC2)cc1 [Example 10.122] | 0.15 µM
CCCc1cnc(N2CCC(c3ccc([C@H](C)NC(C)=O)cc3)CC2)nc1 [Example 4.35] | 0.51 µM
CCc1nc(N2CCC(c3ccc([C@H](C)NC(C)=O)cc3)CC2)no1 [Example 26.2] | 4.1 µM
CC(=O)N[C@@H](C)c1ccc(C2CCN(c3cc(N4Cc5ccccc5C4)ncn3)CC2)cc1 [Example 11.89] | 0.76 µM
C[C@H](NC(=O)C1CC1)c1ccc(C2CCN(c3nc(Oc4ccc(F)cc4)ncc3F)CC2)cc1 [Example 11.120] | 0.28 µM
CC(=O)N[C@@H](C)c1ccc(C2CCN(c3ncc(C(C)(C)C)cn3)CC2)cc1 [Example 4.38] | 0.44 µM
CC(=O)NC(C)Cc1ccc(C2CCN(c3ccc4c(c3)OCCO4)CC2)cc1 (stereo not drawn) [Example 2.4] | 1.8 µM
COCCCOc1ccc(N2CCC(c3ccc([C@H](C)NC(C)=O)cc3)CC2)c(F)c1 [Example 1.99] | 0.33 µM
CC(=O)N[C@@H](C)c1ccc(C2CCN(c3ncc(C(=O)N(C)CC4(C)COC4)cn3)CC2)cc1 [Example 18.68] | 19 µM
CC(=O)N[C@@H](C)c1ccc(C2CCN(c3ncc(C(=O)NC(C)C)cn3)CC2)cc1 [Example 18.48] | 3.6 µM
CCOc1ccc(N2CCC(c3ccc(C(CC)NC(C)=O)cc3)CC2)c(F)c1 (stereo not drawn) [Example 1.207] | 5.1 µM
CC(=O)N[C@@H](C)c1ccc(C2CCN(c3ncc(-c4cc5cc(C#N)ccc5[nH]4)cn3)CC2)cc1 [Example 10.117] | 0.68 µM
COc1ccc(-c2cnc(N3CCC(c4ccc([C@H](C)NC(C)=O)cc4)CC3)nc2)cc1OC [Example 10.35] | 1.1 µM
CCc1cnc(N2CCC(c3ccc([C@H](C)NC(C)=O)cc3)CC2)nc1 [Example 4.42] | 0.53 µM
CC(=O)N[C@@H](C)c1ccc(C2CCN(c3ccc(OC4CC4)cc3OC3CC3)CC2)cc1 [Example 1.94] | 0.21 µM
CC(=O)N[C@@H](C)c1ccc(C2CCN(c3cnc(-c4ccccn4)s3)CC2)cc1 [Example 34.1, (S)—N-(1-(4-(1-(2-(Pyridin-2-yl)thiazol-5-yl)piperidin-4-yl)phenyl)ethyl)acetamide] | 0.42 µM
CCOc1ccc(N2CCC(c3ccc([C@H](C)NC(=O)c4cncnc4)cc3)CC2)cc1 [Example 6.42] | 2.8 µM
CC(=O)N[C@@H](C)c1ccc(C2CCN(c3ncc(-c4cccnc4C)cn3)CC2)cc1 [Example 10.94] | 2.3 µM
CC(=O)N[C@@H](C)c1ccc(C2CCN(c3ncc(C4CC4)cc3F)CC2)cc1 [Example 10.305] | 0.46 µM
CC(=O)N[C@@H](C)c1ccc(C2CCN(c3nc(-c4ccccc4)no3)CC2)cc1 [Example 25.3] | 0.95 µM
CC(=O)N[C@@H](C)c1ccc(C2CCN(c3ncc(-c4ccc(C(C)C)cc4)cn3)CC2)cc1 [Example 10.11] | 5.8 µM
CC(=O)N[C@@H](C)c1ccc(C2CCN(c3ccc4c(c3F)OCCO4)CC2)cc1 [Example 1.192] | 0.12 µM
CC(=O)N[C@@H](C)c1ccc(C2CCN(c3ncc(C(=O)N(C)Cc4ccccn4)cn3)CC2)cc1 [Example 18.37] | 6.4 µM
CC(=O)N[C@@H](C)c1ccc(C2CCN(c3ccc4nnn(C)c4n3)CC2)cc1 [Example 4.14] | 2.4 µM

Compound | IC50
CC(=O)N[C@@H](C)c1ccc(C2CCN(c3cc(OCc4cccnc4)ncn3)CC2)cc1 [Example 11.33] | 0.59 µM
CC(=O)N[C@@H](C)c1ccc(C2CCN(c3ncc(-c4ccc(C(F)(F)F)nc4)cn3)CC2)cc1 [Example 10.85] | 2.6 µM
CC(=O)N[C@@H](C)c1ccc(C2CCN(c3ncc(OC(C)C)cn3)CC2)cc1 [Example 4.51] | 0.31 µM
CC(=O)N[C@@H](C)c1ccc(C2CCN(c3ncc(-c4ccc(F)cc4F)cn3)CC2)cc1 [Example 10.53] | 0.08 µM
CC(=O)N[C@@H](C)c1ccc(C2CCN(c3cnc(OCC4CC4)nc3)CC2)cc1 [Example 16.5] | 2.5 µM
COc1cc(OC)cc(-c2cnc(N3CCC(c4ccc([C@H](C)NC(C)=O)cc4)CC3)nc2)c1 [Example 10.34] | 0.21 µM
CC(=O)N[C@@H](C)c1ccc(C2CCN(c3ccnc(OCC(C)(C)C)c3)CC2)cc1 [Example 19.5] | 0.08 µM
CC(=O)N[C@@H](C)c1ccc(C2CCN(c3ncc(-c4ccc(C)nc4)cn3)CC2)cc1 [Example 10.33] | 0.64 µM
CC(=O)N[C@@H](C)c1ccc(C2CCN(c3ncc(C(=O)N4CCC4)cn3)CC2)cc1 [Example 18.76] | 4 µM
CC(=O)N[C@@H](C)c1ccc(C2CCN(c3ccnc(OCC4CCCC4)n3)CC2)cc1 [Example 11.9] | 0.38 µM
CC(=O)N[C@@H](C)c1ccc(C2CCN(c3ncc(-c4ccc5c(c4)CCCO5)cn3)CC2)cc1 [Example 10.90] | 0.35 µM
CCN(CC)C(=O)c1cnc(N2CCC(c3ccc([C@H](C)NC(C)=O)cc3)CC2)nc1 [Example 18.91] | 0.91 µM
CC(=O)N[C@@H](C)c1ccc(C2CCN(c3nccc(C4CC4)c3C)CC2)cc1 [Example 10.303] | 0.16 µM
COCC(C)Oc1cc(N2CCC(c3ccc([C@H](C)NC(C)=O)cc3)CC2)ccn1 (stereo partly drawn) [Example 19.14] | 0.4 µM
CC(=O)N[C@@H](C)c1ccc(C2CCN(c3ncc(-c4cccc(C)c4)cn3)CC2)cc1 [Example 10.7] | 0.04 µM
CCCOc1cnc(N2CCC(c3ccc([C@H](C)NC(=O)N(C)C)cc3)CC2)nc1 [Example 4.306] | 0.12 µM
C[C@H](NC(=O)N(C)C)c1ccc(C2CCN(c3ccc(OCC4CC4)cc3F)CC2)cc1 [Example 1.84] | 0.18 µM
CC(=O)N[C@@H](C)c1ccc(C2CCN(c3cc4c(cc3C#N)OCO4)CC2)cc1 [Example 1.73] | 3.4 µM
CC(=O)N[C@@H](C)c1ccc(C2CCN(c3ncc(C(=O)Nc4ccc(CN(C)C)cc4)cn3)CC2)cc1 [Example 18.86] | 11.3 µM
Cc1ccc(-c2cnc(N3CCC(c4ccc([C@H](C)NC(=O)N(C)C)cc4)CC3)nc2)cc1 [Example 10.112] | 0.12 µM
CC(=O)N[C@@H](C)c1ccc(C2CCN(c3cc(OCCc4ccccc4)ncn3)CC2)cc1 [Example 11.14] | 3.5 µM
CC(=O)N[C@@H](C)c1ccc(C2CCN(c3ccnc(OCCc4ccccc4)c3)CC2)cc1 [Example 19.9] | 1.3 µM
CC(=O)N[C@@H](C)c1ccc(C2CCN(c3nccc(-c4ccc(C#N)s4)n3)CC2)cc1 [Example 22.11] | 0.39 µM

More lines, now with the values ahead:

IC50 | Compound
1.4 µM | CCOc1ccc(N2CCC(c3ccc([C@H](C)NC(=O)NC4CC4)cc3)CC2)cc1 [Example 14.3]
7.8 µM | CCOc1ccc(N2CCC(c3ccc([C@H](C)NC(=O)N4CCCC4)cc3)CC2)cc1 [Example 14.68]
0.7 µM | COCCOc1cc(N2CCC(c3ccc([C@H](C)NC(C)=O)cc3)CC2)ccn1 [Example 19.3]
2.2 µM | CC(=O)N[C@@H](C)c1ccc(C2CCN(c3ccc(C(C)(C)C)nc3)CC2)cc1 [Example 15.12]
0.73 µM | CCOc1ccc(N2CCC(c3ccc([C@H](C)NC(=O)c4cocn4)cc3)CC2)cc1 [Example 6.47]
0.65 µM | CC(=O)N[C@@H](C)c1ccc(C2CCN(c3ncc(Br)cn3)CC2)cc1 [Example 4.44]
0.14 µM | CCCOc1ccc(N2CCC(c3ccc([C@H](C)NC(=O)CC)cc3)CC2)cc1 [Example 1.145]
1.2 µM | CCCOc1ccc(N2CCC(c3ccc([C@H](C)NC(C)=O)cc3)CC2)cc1C [Example 8.31]
0.13 µM | CC(=O)N[C@@H](C)c1ccc(C2CCN(c3ccc(OC4CCC4)c(Cl)c3)CC2)cc1 [Example 8.14]
11.3 µM | CC(=O)N[C@@H](C)c1ccc(C2CCN(c3ccc(O)cc3)CC2)cc1 [Example 1.48, (S)—N-{1-(4-[1-(4-Hydroxyphenyl)-piperidin-4-yl]-phenyl}-ethyl)-acetamide]
3.5 µM | CCCOc1ccc(N2CCC(c3ccc([C@H](C)NC(C)=O)cc3)CC2)cc1OC [Example 8.33]
12 µM | COCCOc1ccc(N2CCC(c3ccc([C@H](C)NC(C)=O)cc3)CC2)cc1C#N [Example 8.20]
8.9 µM | CCOc1ccc(N2CCC(c3ccc([C@H](C)NC(=O)CC(=O)NC)cc3)CC2)cc1 [Example 33.2]
0.76 µM | CCC(C)Oc1ccc(N2CCC(c3ccc([C@H](C)NC(C)=O)cc3)CC2)cc1C (stereo partly drawn) [Example 8.51]
0.41 µM | CC(=O)N[C@@H](C)c1ccc(C2CCN(c3ccc(OCC4CC4)c(C)c3)CC2)cc1 [Example 9.38]
5.8 µM | CC(=O)N[C@@H](C)c1ccc(C2CCN(c3cccc(O)c3)CC2)cc1 [Example 1.27, (S)—N-{1-(4-[1-(3-hydroxyphenyl)-piperidin-4-yl]-phenyl}-ethyl)-acetamide]
0.57 µM | C=CCC(=O)N[C@@H](C)c1ccc(C2CCN(c3ccc(OCC)cc3)CC2)cc1 [Example 6.16]
0.3 µM | CCC(C)Oc1ccc(N2CCC(c3ccc([C@H](C)NC(C)=O)cc3)CC2)cc1Cl (stereo partly drawn) [Example 8.55]
0.25 µM | CCOc1ccc(N2CCC(c3ccc([C@H](C)NC(=O)c4cn[nH]c4)cc3)CC2)cc1 [Example 6.10]
0.63 µM | COc1cccc(N2CCC(c3ccc([C@H](C)NC(C)=O)cc3)CC2)n1 [Example 5.43]
0.04 µM | CC(=O)N[C@@H](C)c1ccc(C2CCN(c3cccc(OCC(C)(C)C)c3)CC2)cc1 [Example 9.4]
0.33 µM | COc1cc(N2CCC(c3ccc([C@H](C)NC(C)=O)cc3)CC2)ccn1 [Example 3.2]
0.08 µM | CCC(C)Oc1ccc(N2CCC(c3ccc([C@H](C)NC(=O)OC)cc3)CC2)cc1 (stereo partly drawn) [Example 1.130]
0.3 µM | CCOC(=O)c1cc2cc(N3CCC(c4ccc([C@H](C)NC(C)=O)cc4)CC3)ccc2o1 [Example 15.17]
0.34 µM | CCCOc1ccc(N2CCC(c3ccc([C@H](C)NC(C)=O)cc3)CC2)cc1 [Example 3.8]

From patent US9006450B2 (Boehringer Ingelheim International GmbH, priority 2010, dated 2015)
